What is called Ki is the dissociation constant of the complex between target and ligand, obtained from inhibition or displacement. A word on the solubility: it is how much of the substance goes into solution per volume.

SMILES strings stand for the structures. In brackets after ≈: the same amount, converted by molar mass. Like-named read-outs stand apart in the source and are kept apart here. *1 amine or outer side, *2 acyl side, *3 side chain or, on linkers, in order; H or OH if unused. Where a SMILES comes first, the peptide text is derived from it. Bridges are numbered along the chain shown (N, C = ends). [ ]: non-standard residue; d: D form. The star is where a group is joined. Palmitoyl(16-(5-tetrazolyl)) = O=C(CCCCCCCCCCCCCCCc1nnn[nH]1)*; X2 = O=C(CCCCCCCCCCCCCCCc1nnn[nH]1)NS(=O)(=O)CCCC(=O)*; Lys(CH2CO2H)2 = N[C@@H](CCCCN(CC(=O)O)CC(=O)O)C(=O)O; X1 = O=C(O)CN(CC(=O)O)C[C@H](N[*:1])C(=O)[*:2]; C16 diacid = O=C(O)CCCCCCCCCCCCCCC(=O)*; Hyp = O=C(O)[C@@H]1C[C@@H](O)CN1; NTA = O=C(O)CN(CC(=O)O)CC(=O)*; Nle = CCCC[C@H](N)C(=O)O; Dab = NCC[C@H](N)C(=O)O; Dap = NC[C@H](N)C(=O)O; AEEA = NCCOCCOCC(=O)O; βAla = NCCC(=O)O

One data set has as its target T1, human MC4 receptor (Homo sapiens, UniProt P32245).
T1 construct: expressed in transfected cells
In words: Assay (V) Melanocortin Receptor 4 (MC4) binding assay. The conditions noted are these: 125NDP-α-MSH binding, BHK cell membranes. On the procedure: Assay (V)—Melanocortin Receptor 4 (MC4) Binding Assay
In vitro ^125NDP-α-MSH binding to recombinant BHK cells expressing human MC4 receptor (filtration assay).
The assay is performed in 5 ml minisorb vials (Sarstedt No. 55.526) or in 96-well filterplates (Millipore MADVN 6550), and using BHK cells expressing the human MC4 receptor using BHK cells stably expressing the human MC4 receptor. The membranes were prepared from frozen or fresh cells that were homogenized in 20 mM HEPES pH 7.1, 5 mM MgCl2 and 1 mg/ml bacitracin and centrifuged at 15000 rpm at 4° C., 10 min in a Sorvall RC 5B plus, SS-34 rotor. The supernatant was discarded, and the pellets were re-suspended in buffer, homogenized and centrifuged two more times. The final pellets were resuspended in the buffer mentioned above, and the protein concentration was measured and adjusted with buffer to 14 to 17 mg/ml and the membrane preparation were kept at −80° C. until assay. The assay was run directly on a dilution of this cell membrane suspension, without any further preparation. The BHK cell membranes are kept at −80° C. until assay, and the assay is run directly on a dilution of this cell membrane suspension, without further preparation. The suspension is diluted to give maximally 10% specific binding, i.e. to approx. 50-100 fold dilution. The assay is performed in a total volume of 200 μl: 50 μl of cell suspension, 50 μl of ^125NDP-α-MSH (≈79 pM in final concentration), 50 μl of test compound and 50 μl binding buffer (pH 7) mixed and incubated for 2 h at 25° C. [binding buffer: 25 mM HEPES, pH 7.0, 1 mM CaCl2, 1 mM MgSO4, 1 mM EGTA, 0.02% Bacitracin, 0.005% Tween™ 20 and 0.1% HSA or, alternatively, 0.1% ovalbumin (Sigma; catalogue No. A-5503)]. Test compounds are dissolved in DMSO and diluted in binding buffer. Radiolabelled ligand and membranes are diluted in binding buffer. The incubation is stopped by dilution with 2×100 μl ice-cold 0.9% NaCl. The radioactivity retained on the filters is counted using a Cobra II auto gamma counter.
(§1) The data are analysed by non-linear regression analysis of binding curves, using the Windows™ program GraphPad™ Prism (GraphPad Software, USA).

The target of the next data set is T2, MC1 receptor (Homo sapiens, UniProt Q01726).
T2 construct: expressed in transfected cells
In words: Assay (IV) Melanocortin Receptor 1 (MC1) binding assay. On the procedure: Assay (IV)—Melanocortin Receptor 1 (MC1) Binding Assay
The MC1 receptor binding assay is performed on BHK cell membranes stably expressing the MC1 receptor. The assay is performed in a total volume of 250 NI: 25 μl of ^125NDP-α-MSH (22 pM in final concentration), 25 μl of test compound/control and 200 μl of cell membrane (25 μg/ml). Test compounds are dissolved in DMSO. Radioactively labeled ligand, membranes and test compounds are diluted in buffer: 25 mM HEPES, pH 7.4, 0.1 mM CaCl2, 1 mM MgSO4, 1 mM EDTA, 0.1% HSA and 0.005% Tween™ 20. Alternatively, HSA may be substituted with ovalbumin. The samples are incubated at 30° C. for 90 min. in Costar round-bottom microtiter plates. Incubation is terminated by filtration on a Packard harvester filtermate. Rapid filtration through Packard Unifilter-96 GF/B filters pre-treated with polyethylenimine (PerkinElmer 6005277). The filters are washed with ice-cold 0.9% NaCl 8-10 times. The plates is air dried at app. 55° C. for 30 min, and 50 μl Microscint 0 (Packard, cat. No. 6013616) is added to each well. The plates are counted in a Topcounter (1 min/well).
as §1

Data set [1] in a line: Solubility data of compounds in water over the pH range. It counts as physicochemical. Particulars: read-out: Conc (solubility in water).
The mark [2] stands for this setting: 125NDP-α-MSH binding, BHK cell membranes, read-out: Assay (IV) MC1 Ki.

T2 sequence (Q01726 whole entry): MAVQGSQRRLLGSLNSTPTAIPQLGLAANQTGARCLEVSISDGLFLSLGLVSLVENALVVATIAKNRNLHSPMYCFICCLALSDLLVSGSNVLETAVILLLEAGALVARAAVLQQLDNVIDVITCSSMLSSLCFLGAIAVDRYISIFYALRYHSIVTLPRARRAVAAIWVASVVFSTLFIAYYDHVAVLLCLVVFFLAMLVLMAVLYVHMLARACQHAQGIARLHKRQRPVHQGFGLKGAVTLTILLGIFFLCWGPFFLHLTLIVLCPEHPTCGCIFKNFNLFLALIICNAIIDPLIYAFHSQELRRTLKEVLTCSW
T1 sequence (P32245 whole entry): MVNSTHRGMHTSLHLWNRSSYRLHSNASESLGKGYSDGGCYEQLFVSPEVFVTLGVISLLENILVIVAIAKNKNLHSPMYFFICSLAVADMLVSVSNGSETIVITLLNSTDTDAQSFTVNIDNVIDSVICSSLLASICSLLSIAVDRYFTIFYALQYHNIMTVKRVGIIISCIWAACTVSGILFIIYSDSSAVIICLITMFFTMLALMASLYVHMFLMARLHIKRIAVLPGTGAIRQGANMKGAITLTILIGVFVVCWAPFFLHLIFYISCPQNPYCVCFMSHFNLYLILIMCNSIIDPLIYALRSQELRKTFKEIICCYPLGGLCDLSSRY

`CCCC[C@H](NC(=O)[C@H](CNC(=O)CN(CC(=O)O)CC(=O)O)NC(=O)[C@H](CO)NC(=O)[C@H](CCC(N)=O)NC(=O)[C@H](CO)NC(=O)CNC(=O)COCCOCCNC(=O)CCCCCCCCCCCCCCCc1nnn[nH]1)C(=O)N[C@H]1CCC(=O)NCCCC[C@@H](C(N)=O)NC(=O)[C@H](Cc2c[nH]c3ccccc23)NC(=O)[C@H](CCCNC(=N)N)NC(=O)[C@@H](Cc2ccccc2)NC(=O)[C@@H]2C[C@@H](O)CN2C1=O` [Example 4, (2-{2-[16-(Tetrazol-5-yl)hexadecanoylamino]ethoxy}ethoxy)acetyl-Gly-Ser-Gln-Ser-Dap(BCMA)-Nle-c[Glu-Hyp-D-Phe-Arg-Trp-Lys]-NH2] ({Palmitoyl(16-(5-tetrazolyl))-AEEA}-GSQS[Dap](NTA)[Nle]E[Hyp][dF]RWK-NH2; lactam 7-12): the inhibition constant (Ki) on human MC4 receptor (Assay (V) MC4 [Ki] (nM)) is 5.67 nM; on MC1 receptor, 4800 nM.
For `CCCC[C@H](NC(=O)[C@H](CN(CC(=O)O)CC(=O)O)NC(=O)[C@H](Cc1c[nH]cn1)NC(=O)[C@H](CCC(N)=O)NC(=O)[C@H](CO)NC(=O)CNC(=O)COCCOCCNC(=O)CCCCCCCCCCCCCCCc1nnn[nH]1)C(=O)N[C@H]1CCC(=O)NCCCC[C@@H](C(N)=O)NC(=O)[C@H](Cc2c[nH]c3ccccc23)NC(=O)[C@H](CCCNC(=N)N)NC(=O)[C@@H](Cc2ccccc2)NC(=O)[C@@H]2C[C@@H](O)CN2C1=O` [Example 6, (2-{2-[16-(Tetrazol-5-yl)hexadecanoylamino]ethoxy}ethoxy)acetyl-Gly-Ser-Gln-His-Dap(biscarboxymethyl)-Nle-c[Glu-Hyp-D-Phe-Arg-Trp-Lys]-NH2] ({Palmitoyl(16-(5-tetrazolyl))-AEEA}-GSQH[X1][Nle]E[Hyp][dF]RWK-NH2; lactam 7-12), in that order: 2.9 nM and 5860 nM.
For `CCCC[C@H](NC(=O)[C@H](CNC(=O)CN(CC(=O)O)CC(=O)O)NC(=O)[C@H](Cc1cnc[nH]1)NC(=O)[C@H](CCC(N)=O)NC(=O)[C@H](CO)NC(=O)CNC(=O)COCCOCCNC(=O)CCCCCCCCCCCCCCCc1nnn[nH]1)C(=O)N[C@H]1CCC(=O)NCCCC[C@@H](C(N)=O)NC(=O)[C@H](Cc2c[nH]c3ccccc23)NC(=O)[C@H](CCCN=C(N)N)NC(=O)[C@@H](Cc2ccccc2)NC(=O)[C@@H]2C[C@@H](O)CN2C1=O` [Example 9, (2-{2-[16-(Tetrazol-5-yl)hexadecanoylamino]ethoxy}ethoxy)acetyl-Gly-Ser-Gln-His-Dap(BCMA)-Nle-c[Glu-Hyp-D-Phe-Arg-Trp-Lys]-NH2] ({Palmitoyl(16-(5-tetrazolyl))-AEEA}-GSQH[Dap](NTA)[Nle]E[Hyp][dF]RWK-NH2; lactam 7-12), in that order: 0.58 nM and 2670 nM.
As for `CCCC[C@H](NC(=O)[C@H](CCNC(=O)CN(CC(=O)O)CC(=O)O)NC(=O)[C@H](Cc1c[nH]cn1)NC(=O)[C@H](CCC(N)=O)NC(=O)[C@H](CO)NC(=O)CNC(=O)COCCOCCNC(=O)CCCCCCCCCCCCCCCc1nnn[nH]1)C(=O)N[C@H]1CCC(=O)NCCCC[C@@H](C(N)=O)NC(=O)[C@H](Cc2c[nH]c3ccccc23)NC(=O)[C@H](CCCNC(=N)N)NC(=O)[C@@H](Cc2ccccc2)NC(=O)[C@@H]2C[C@@H](O)CN2C1=O` [Example 10, (2-{2-[16-(Tetrazol-5-yl)hexadecanoylamino]ethoxy}ethoxy)acetyl-Gly-Ser-Gln-His-Dab(BCMA)-Nle-c[Glu-Hyp-D-Phe-Arg-Trp-Lys]-NH2] ({Palmitoyl(16-(5-tetrazolyl))-AEEA}-GSQH[Dab](NTA)[Nle]E[Hyp][dF]RWK-NH2; lactam 7-12), the figures for the inhibitory constant (Ki) at human MC4 receptor (read-out: Assay (V) MC4 [Ki]) and on MC1 receptor (setting [2]) were 1.05 nM and above 10000 nM, respectively.
As for `CCCC[C@H](NC(=O)[C@H](CNC(=O)CN(CC(=O)O)CC(=O)O)NC(=O)[C@H](Cc1c[nH]cn1)NC(=O)[C@H](CCC(N)=O)NC(=O)[C@H](CO)NC(=O)CNC(=O)COCCOCCNC(=O)CCCS(=O)(=O)NC(=O)CCCCCCCCCCCCCCCc1nnn[nH]1)C(=O)N[C@H]1CCC(=O)NCCCC[C@@H](C(N)=O)NC(=O)[C@H](Cc2c[nH]c3ccccc23)NC(=O)[C@H](CCCNC(=N)N)NC(=O)[C@@H](Cc2ccccc2)NC(=O)[C@@H]2C[C@@H](O)CN2C1=O` [Example 11, [2-(2-{4-[16-(Tetrazol-5-yl)hexadecanoylsulfamoyl]butanoylamino}ethoxy)ethoxy]acetyl-Gly-Ser-Gln-His-Dap(BCMA)-Nle-c[Glu-Hyp-D-Phe-Arg-Trp-Lys]-NH2] ({X2-AEEA}-GSQH[Dap](NTA)[Nle]E[Hyp][dF]RWK-NH2; lactam 7-12), the inhibition constant Ki at human MC4 receptor (Assay (V) MC4 [Ki] (nM)) turned out to be 3.25 nM; on MC1 receptor it was 9700 nM.
`CCCC[C@H](NC(=O)[C@H](CCCCN(CC(=O)O)CC(=O)O)NC(=O)CCNC(=O)[C@H](Cc1c[nH]cn1)NC(=O)[C@H](CCC(N)=O)NC(=O)[C@H](CO)NC(=O)[C@H](CO)NC(=O)[C@H](CCC(N)=O)NC(=O)[C@@H](CO)NC(=O)CNC(=O)COCCOCCNC(=O)COCCOCCNC(=O)CCCCCCCCCCCCCCCc1nnn[nH]1)C(=O)N[C@H]1CCC(=O)NCCCC[C@@H](C(N)=O)NC(=O)[C@H](Cc2c[nH]c3ccccc23)NC(=O)[C@H](CCCNC(=N)N)NC(=O)[C@@H](Cc2ccccc2)NC(=O)[C@@H]2C[C@@H](O)CN2C1=O` [Example 12, (2-{2-[2-(2-{2-[16-(Tetrazol-5-yl)hexadecanoylamino]ethoxy}ethoxy)acetylamino]ethoxy}ethoxy)acetyl-Gly-D-Ser-Gln-Ser-Ser-Gln-His-β-Ala-Lys(biscarboxymethyl)-Nle-c[Glu-Hyp-D-Phe-Arg-Trp-Lys]-NH2] ({Palmitoyl(16-(5-tetrazolyl))-AEEA-AEEA}-G[dS]QSSQH[βAla][Lys(CH2CO2H)2][Nle]E[Hyp][dF]RWK-NH2; lactam 11-16): the solubility at 3 days in data set [1] (pH 3.1, pH 3.10) stood at 409 µM (≈ 1060 µg/mL); in data set [1] (pH 4.11, pH 4.11), 374 µM (≈ 971 µg/mL); in data set [1] (pH 4.69, pH 4.69) it was 395 µM (≈ 1030 µg/mL); in data set [1] (pH 4.82, pH 4.82) it was 268 µM (≈ 696 µg/mL); in data set [1] (pH 5.07, pH 5.07), 136 µM (≈ 353 µg/mL); in data set [1] (pH 5.56, pH 5.56), 43 µM (≈ 112 µg/mL). For the same compound, the solubility at 3 days in data set [1] (pH 6.71, pH 6.71) worked out at 58 µM (≈ 151 µg/mL); in data set [1] (pH 6.71), 87 µM (≈ 226 µg/mL); in data set [1] (pH 6.99), 119 µM (≈ 309 µg/mL); in data set [1] (pH 7.15, pH 7.15) it was 210 µM (≈ 545 µg/mL); in data set [1] (pH 7.72, pH 7.72), 256 µM (≈ 665 µg/mL). On human MC4 receptor (Assay (V) MC4 [Ki] (nM)), the affinity corresponds to a Ki of 2.85 nM.
For `CCCC[C@H](NC(=O)[C@H](CNC(=O)CN(CC(=O)O)CC(=O)O)NC(=O)[C@H](Cc1c[nH]cn1)NC(=O)[C@H](CCC(N)=O)NC(=O)[C@H](CO)NC(=O)CNC(=O)COCCOCCNC(=O)CCCCCCCCCCCCCCC(=O)O)C(=O)N[C@H]1CCC(=O)NCCCC[C@@H](C(N)=O)NC(=O)[C@H](Cc2c[nH]c3ccccc23)NC(=O)[C@H](CCCNC(=N)N)NC(=O)[C@@H](Cc2ccccc2)NC(=O)[C@@H]2C[C@@H](O)CN2C1=O` [Example 13, {2-[2-(15-Carboxypentadecanoylamino)ethoxy]ethoxy}acetyl-Gly-Ser-Gln-His-Dap(BCMA)-Nle-c[Glu-Hyp-D-Phe-Arg-Trp-Lys]-NH2] ({C16 diacid-AEEA}-GSQH[Dap](NTA)[Nle]E[Hyp][dF]RWK-NH2; lactam 7-12), the Ki is 3.6 nM at human MC4 receptor (read-out: Assay (V) MC4 [Ki]) and above 10000 nM at MC1 receptor (setting [2]).

The values are drawn from US20100173835A1, “Peptides for Treatment of Obesity” (Novo Nordisk A/S, priority 2008, published 2010).
